# Laboratory results as given in patent US9073911B2, “Pyrazole derivatives” (HOFFMANN-LA ROCHE INC., priority 2011, dated 2015).
# Where a name gives a salt, the structure may show the parent alone.
# How the values were obtained:
# [1] = biological target: mouse TAAR1 (Mus musculus (Mouse), UniProt Q923Y8); experiment: Radioligand binding assay on mouse TAAR1; details: membranes of HEK-293 cells stably expressing mouse TAAR1; first value of cell mouse/rat
# Protocol: (§1) Construction of TAAR Expression Plasmids and Stably Transfected Cell Lines
# (§2) For the construction of expression plasmids the coding sequences of human, rat and mouse TAAR 1 were amplified from genomic DNA essentially as described by Lindemann et al.. The Expand High Fidelity PCR System (Roche Diagnostics) was used with 1.5 mM Mg^2+ and purified PCR products were cloned into pCR2.1-TOPO cloning vector (Invitrogen) following the instructions of the manufacturer. PCR products were subcloned into the pIRESneo2 vector (BD Clontech, Palo Alto, Calif.), and expression vectors were sequence verified before introduction in cell lines.
# (§3) HEK293 cells (ATCC # CRL-1573) were cultured essentially as described by Lindemann et al. (2005). For the generation of stably transfected cell lines HEK293 cells were transfected with the pIRESneo2 expression plasmids containing the TAAR coding sequences (described above) with Lipofectamine 2000 (Invitrogen) according to the instructions of the manufacturer, and 24 hrs post transfection the culture medium was supplemented with 1 mg/ml G418 (Sigma, Buchs, Switzerland). After a culture period of about 10 d clones were isolated, expanded and tested for responsiveness to trace amines (all compounds purchased from Sigma) with the cAMP Biotrak Enzyme immunoassay (EIA) System (Amersham) following the non-acetylation EIA procedure provided by the manufacturer.
# Radioligand Binding Assay on Mouse TAAR1
# (§4) Membrane Preparation and Radioligand Binding.
# HEK-293 cells stably expressing mouse TAAR1 were maintained at 37° C. and 5% CO2 in DMEM high glucose medium, containing fetal calf serum (10%, heat inactivated for 30 min at 56° C.), penicillin/streptomycin (1%), and 375 μg/ml geneticin (Gibco). Cells were released from culture flasks using trypsin/EDTA, harvested, washed twice with ice-cold PBS (without Ca^2+ and Mg^2+), pelleted at 1,000 rpm for 5 min at 4° C., frozen and stored at −80° C. Frozen pellets were suspended in 20 ml HEPES-NaOH (20 mM, pH 7.4) containing 10 mM EDTA and homogenized with a Polytron (PT 6000, Kinematica) at 14,000 rpm for 20 s. The homogenate was centrifuged at 48,000×g for 30 min at 4° C. Subsequently, the supernatant was removed and discarded, and the pellet resuspended in 20 ml HEPES-NaOH (20 mM, pH 7.4) containing 0.1 mM EDTA using the Polytron (20 s at 14,000 rpm). This procedure was repeated and the final pellet resuspended in HEPES-NaOH containing 0.1 mM EDTA and homogenized using the Polytron. Typically, aliquots of 2 ml membrane portions were stored at −80° C. With each new membrane batch the dissociation constant (Kd) was determined via a saturation curve. The TAAR1 radioligand ^3[H]—(S)-4-[(ethyl-phenyl-amino)-methyl]-4,5-dihydro-oxazol-2-ylamine (described in WO 2008/098857) was used at a concentration equal to the calculated Kd value, that was usually around 0.7 nM, resulting in the binding of approximately 0.5% of the radioligand and a specific binding representing approximately 70% of the total binding. Nonspecific binding was defined as the amount of ^3[H]—(S)-4-[(ethyl-phenyl-amino)-methyl]-4,5-dihydro-oxazol-2-ylamine bound in the presence of 10 μM unlabeled ligand. All compounds were tested at a broad range of concentrations ([…]) in duplicates. […] The 96 deep well plates were incubated for 1 hr at 4° C. Incubations were terminated by rapid filtration through Unifilter-96 plates (Packard Instrument Company) and glass filters GF/C (Perkin Elmer) presoaked for 1 hr in polyethylenimine (0.3%) and washed 3 times with 1 ml of cold binding buffer. After addition of 45 μl of Microscint 40 (PerkinElmer) the Unifilter-96 plate was sealed and after 1 hr the radioactivity counted using a TopCount Microplate Scintillation Counter (Packard Instrument Company).
# [2] = biological target: rat TAAR1 (Rattus norvegicus (Rat), UniProt Q923Y9); experiment: Radioligand binding assay on rat TAAR1; details: membranes of HEK-293 cells stably expressing rat TAAR1; second value of cell mouse/rat
# rat TAAR1, sequence (Q923Y9 whole entry): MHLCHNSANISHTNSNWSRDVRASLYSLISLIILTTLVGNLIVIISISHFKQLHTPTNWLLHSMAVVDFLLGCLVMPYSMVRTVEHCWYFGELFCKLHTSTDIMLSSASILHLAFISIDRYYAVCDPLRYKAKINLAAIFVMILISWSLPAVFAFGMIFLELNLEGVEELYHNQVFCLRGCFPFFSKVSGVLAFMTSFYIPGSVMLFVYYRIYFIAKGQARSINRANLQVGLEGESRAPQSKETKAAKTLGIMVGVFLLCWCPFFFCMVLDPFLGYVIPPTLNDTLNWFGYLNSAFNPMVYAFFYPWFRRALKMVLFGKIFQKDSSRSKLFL
# Protocol: as §1, §2, §3
# Radioligand Binding Assay on rat TAAR1
# as §4
# HEK-293 cells stably expressing rat TAAR1 were maintained at 37° C. and 5% CO2 in DMEM high glucose medium, containing fetal calf serum (10%, heat inactivated for 30 min at 56° C.), penicillin/streptomycin (1%), and 375 μg/ml geneticin (Gibco). Cells were released from culture flasks using trypsin/EDTA, harvested, washed twice with ice-cold PBS (without Ca^2+ and Mg^2+), pelleted at 1,000 rpm for 5 min at 4° C., frozen and stored at −80° C. Frozen pellets were suspended in 20 ml HEPES-NaOH (20 mM, pH 7.4) containing 10 mM EDTA and homogenized with a Polytron (PT 6000, Kinematica) at 14,000 rpm for 20 s. The homogenate was centrifuged at 48,000×g for 30 min at 4° C. Subsequently, the supernatant was removed and discarded, and the pellet resuspended in 20 ml HEPES-NaOH (20 mM, pH 7.4) containing 0.1 mM EDTA using the Polytron (20 s at 14,000 rpm). This procedure was repeated and the final pellet resuspended in HEPES-NaOH containing 0.1 mM EDTA and homogenized using the Polytron. Typically, aliquots of 2 ml membrane portions were stored at −80° C. With each new membrane batch the dissociation constant (Kd) was determined via a saturation curve.
# Nonspecific binding was defined as the amount of ^3-[H]-(S)-4-[(ethyl-phenyl-amino)-methyl]-4,5-dihydro-oxazol-2-ylamine bound in the presence of 10 μM unlabeled ligand. All compounds were tested at a broad range of concentrations (10 pM to 10 μM) in duplicates. […] The 96 deep well plates were incubated for 1 hr at 4° C. Incubations were terminated by rapid filtration through Unifilter-96 plates (Packard Instrument Company) and glass filters GF/C (Perkin Elmer) presoaked for 1 hr in polyethylenimine (0.3%) and washed 3 times with 1 ml of cold binding buffer. After addition of 45 μl of Microscint 40 (PerkinElmer) the Unifilter-96 plate was sealed and after 1 hr the ratioactivity counted using a TopCount Microplate Scintillation Counter (Packard Instrument Company).
# mouse TAAR1, sequence (Q923Y8 whole entry): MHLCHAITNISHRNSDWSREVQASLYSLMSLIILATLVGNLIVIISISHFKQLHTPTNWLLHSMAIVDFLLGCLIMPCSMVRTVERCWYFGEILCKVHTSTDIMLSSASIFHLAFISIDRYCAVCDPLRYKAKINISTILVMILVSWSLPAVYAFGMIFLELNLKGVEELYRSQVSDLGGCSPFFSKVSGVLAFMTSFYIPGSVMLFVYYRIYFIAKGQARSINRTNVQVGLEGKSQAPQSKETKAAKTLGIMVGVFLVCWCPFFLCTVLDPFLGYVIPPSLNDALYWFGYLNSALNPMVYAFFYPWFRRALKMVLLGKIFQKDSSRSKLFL
Ki [1],Ki [2],Compound
0.0022 µM,0.0074 µM,"N#Cc1cccc(-c2cc(C(=O)Nc3ccc([C@H]4CNCCO4)cc3)n[nH]2)c1 [Example 20, (S)-5-(3-cyanophenyl)-N-(4-(morpholin-2-yl)phenyl)-1H-pyrazole-3-carboxamide hydrochloride]"
0.0053 µM,0.0055 µM,"Cn1nc(-c2ccc(C#N)cc2)cc1C(=O)Nc1ccc([C@H]2CNCCO2)cc1 [Example 21, (S)-3-(4-cyanophenyl)-1-methyl-N-(4-(morpholin-2-yl)phenyl)-1H-pyrazole-5-carboxamide hydrochloride]"
0.0067 µM,0.0142 µM,"Cn1nc(-c2cccc(C#N)c2)cc1C(=O)Nc1ccc([C@H]2CNCCO2)cc1 [Example 24, (S)-3-(3-cyanophenyl)-1-methyl-N-(4-(morpholin-2-yl)phenyl)-1H-pyrazole-5-carboxamide hydrochloride]"
0.0734 µM,0.0316 µM,"CCn1nc(-c2ccc(C#N)cc2)cc1C(=O)Nc1ccc([C@H]2CNCCO2)cc1 [Example 26, (S)-3-(4-cyanophenyl)-1-ethyl-N-(4-(morpholin-2-yl)phenyl)-1H-pyrazole-5-carboxamide hydrochloride]"
0.0021 µM,0.0135 µM,"Cc1c(C(=O)Nc2ccc([C@H]3CNCCO3)cc2)n[nH]c1-c1cccc(C#N)c1 [Example 27, (S)-5-(3-cyanophenyl)-4-methyl-N-(4-(morpholin-2-yl)phenyl)-1H-pyrazole-3-carboxamide hydrochloride]"
0.0043 µM,0.0129 µM,"N#Cc1ccc(F)c(-c2cc(C(=O)Nc3ccc([C@H]4CNCCO4)cc3)n[nH]2)c1 [Example 28, (S)-5-(5-cyano-2-fluorophenyl)-N-(4-(morpholin-2-yl)phenyl)-1H-pyrazole-3-carboxamide hydrochloride]"
0.143 µM,1.32 µM,"O=C(Nc1ccc([C@H]2CNCCO2)cc1)c1ccnn1-c1ccccc1 [Example 30, (S)—N-(4-(Morpholin-2-yl)phenyl)-1-phenyl-1H-pyrazole-5-carboxamide hydrochloride]"
0.0007 µM,0.0011 µM,"O=C(Nc1ccc([C@H]2CNCCO2)cc1)c1ccn(-c2ccc(Cl)cn2)n1 [Example 32, (S)-1-(5-Chloropyridin-2-yl)-N-(4-(morpholin-2-yl)phenyl)-1H-pyrazole-3-carboxamide hydrochloride]"

Compound,Ki [1],Ki [2]
"CCn1nc(-c2cccc(C#N)c2)cc1C(=O)Nc1ccc([C@H]2CNCCO2)cc1 [Example 25, (S)-3-(3-cyanophenyl)-1-ethyl-N-(4-(morpholin-2-yl)phenyl)-1H-pyrazole-5-carboxamide hydrochloride]",0.0051 µM,0.0078 µM
"O=C(Nc1ccc([C@H]2CNCCO2)cc1)c1ccn(-c2ccc(F)cc2)n1 [Example 29, (S)-1-(4-Fluorophenyl)-N-(4-(morpholin-2-yl)phenyl)-1H-pyrazole-3-carboxamide hydrochloride]",0.0011 µM,0.0024 µM
"O=C(Nc1ccc([C@@H]2CNCCO2)cc1)c1ccn(-c2ccc(F)cc2)n1 [Example 31, (R)-1-(4-Fluorophenyl)-N-(4-(morpholin-2-yl)phenyl)-1H-pyrazole-3-carboxamide hydrochloride]",0.0013 µM,0.0024 µM
"O=C(Nc1ccc([C@H]2CNCCO2)cc1)c1ccn(-c2ccc(C(F)(F)F)cn2)n1 [Example 33, (S)—N-(4-(Morpholin-2-yl)phenyl)-1-(5-(trifluoromethyl)pyridin-2-yl)-1H-pyrazole-3-carboxamide hydrochloride]",0.0028 µM,0.0016 µM
"N#Cc1ccc(-n2ccc(C(=O)Nc3ccc([C@H]4CNCCO4)cc3)n2)cc1 [Example 34, (S)-1-(4-Cyanophenyl)-N-(4-(morpholin-2-yl)phenyl)-1H-pyrazole-3-carboxamide hydrochloride]",0.0037 µM,0.0092 µM
"O=C(Nc1ccc([C@@H]2CNCCO2)cc1)c1ccn(-c2ccc(C(F)(F)F)cn2)n1 [Example 35, (R)—N-(4-(Morpholin-2-yl)phenyl)-1-(5-(trifluoromethyl)pyridin-2-yl)-1H-pyrazole-3-carboxamide hydrochloride]",0.0022 µM,0.0006 µM
